{
  "source": "patent US12370230B2",
  "about": "“Hemp and PEA formulation and its use” (priority 2019, dated 2025)",
  "key": {"[1]": {"system": "formalin-evoked acute and persistent nociceptive behaviors", "experiment": "Formalin test (acute nocifensive response; PFD7 hypersensitivity and paw edema)", "assay_type": "in vivo, mice", "procedure": "(§1) We used male CD-1 mice (9-10 weeks old; Charles River, Wilmington, MA, US) weighing 25-30 g upon arrival. They were randomly assigned to treatment groups and housed in ventilated plastic cages (4-5 per cage) in the animal facility of the University of California, Irvine. Animals were maintained in a pathogen-free environment (12-h light/dark cycle) under controlled temperature (20±2° C.) and humidity (55-60%) with food and water available ad libitum. Mice were allowed to acclimate for at least 7 days and experiments were conducted during the light phase of the light/dark cycle. All efforts were made to minimize the number of animals used and their discomfort. All procedures were approved by the Institutional Animal Care and Use Committee at the University of California, Irvine, and were carried out in strict accordance with the National Institutes of Health guidelines for the care and use of animals.\n(§2) HOE (code: VOHO-MGC) and PEA (batch No 20190604_03) were supplied by Metagenics Inc. The chemical composition of HOE is presented in Table A below. The extract was aliquoted upon arrival at our facility and kept at −80° C. until use. Before tests, aliquots were thawed at room temperature and the extract was diluted to the desired dose in a vehicle of 85% distilled water/15% Tween 80. Defrosted samples were discarded after use. HOE was subjected to an internal quality control to monitor its content of CBD and CBDA over time. HOE, PEA and their combinations were administered in volumes of 10 mL/kg by oral gavage.\nThe formalin test was described in detail previously (e.g., see Dubuisson & Dennis, 1977). We injected formalin (1% v/v, 10 μL) or vehicle (saline, 10 μL) into the plantar surface of the right hind paw of male mice. Test compounds or vehicle (85% distilled water/15% Tween 80) were administered orally 1 h before formalin injection. Following injection, mice were immediately transferred to a transparent observation chamber where nocifensive behavior (time spent licking or biting the injected paw, number of shakings) was continuously recorded by a video camera for 60 min and then measured by trained observers blinded to experimental conditions. Behavioral tests and paw edema measurements were performed on post-formalin day (PFD) 7 in both the injected (ipsilateral) and contralateral paws.\n(§3) Mechanical sensitivity was assessed using a dynamic plantar aesthesiometer (Cat. No 37450, Ugo Basile, Italy). Mice were placed individually in transparent cages positioned on a wire mesh surface. After a 45-min habituation period, a mechanical stimulus was delivered to the plantar surface of the hind paws through the metal grid by an automated steel filament exerting an increasing force ranging from 0 to 5 grams over 10 s. The force at which the mouse withdrawn its paw (withdrawal threshold, in grams) was measured automatically. Thermal sensitivity was measured using a Hargreaves plantar test apparatus (San Diego Instruments, Inc, CA, USA). Mice were individually placed in small enclosures with a glass floor. After a 45-min habituation period, the plantar surface of the hind paws was exposed to a beam of radiant heat (infrared heat intensity: 3.0) through the glass floor. The cut-off time was set at 15 s. The time taken to withdraw the paw from heat stimulus (withdrawal latency, in seconds) was measured automatically. Each paw was tested 3 times with a 2-min interval between stimuli and the mean paw withdrawal threshold and latency were calculated. Paw thickness was measured in both ipsilateral and contralateral paws using a digital caliper (Cat. No 06-664-16, Fisher scientific, USA). Paw edema was quantified as the difference (paw thickness, in mm) between the ipsilateral paw thickness and the contralateral counterpart.\nResults are presented as mean S.E.M. of n experiments. ED50 values were determined by linear regression analysis of dose-response curves. […]"}, "[2]": {"system": "CCI-evoked mechanical allodynia and heat hyperalgesia", "experiment": "Chronic constriction injury (CCI) of the sciatic nerve: mechanical allodynia and heat hyperalgesia", "assay_type": "in vivo, mice", "procedure": "as §1, §2\n(§4) We elicited peripheral neuropathy in the left sciatic nerve of mice as described elsewhere (e.g., see Bennett & Xie, 1988). In brief, mice were anesthetized in 2-3% isoflurane in O2. Under aseptic conditions, the sciatic nerve was exposed at mid-thigh level through a small incision and loosely tied at 3 distinct sites (spaced at 1-mm interval) with 4-0 chromic catgut (Ethicon, USA). The wound was closed with a single muscle suture (Mersilk 5.0, Ethicon, USA) and glue to fasten the skin. Operated mice were returned to their home cages for recovery. Test compounds or vehicle were given by the oral route on day 7 after surgery (acute treatment) and then repeatedly once daily for 7 consecutive days (subchronic treatment). Behavioral tests were performed within 1 h of acute treatment or last subchronic treatment in both operated (ipsilateral) and contralateral paws. Mice were sacrificed by decapitation, the spinal cords were extruded by hydraulic pressure and processed for specific mRNA quantification in lumbar segments by real-time quantitative PCR.\nas §3, with “Paw edema was quantified as the difference (paw thickness, in mm) between the ipsilateral paw thickness and the contralateral counterpart.” left out"}, "IL-10 mRNA": {"system": "IL-10 mRNA", "experiment": "Real-time quantitative PCR in lumbar spinal cords of CCI mice, IL-10", "assay_type": "in vivo", "conditions": "PEA 20 mg/kg alone, oral, lumbar spinal cord, vs vehicle", "source_text": "as §4, with “Test compounds or vehicle were given by the oral route on day 7 after surgery (acute treatment) and then repeatedly once daily for 7 consecutive days (subchronic treatment). Behavioral tests were performed within 1 h of acute treatment or last subchronic treatment in both operated (ipsilateral) and contralateral paws.” left out\nWe extracted total RNA from lumbar spinal cords (L3-L6) using TRIzol™ reagent (Thermo Fisher Scientific, Walthman, USA) and purified with the PureLink™ RNA Mini Kit (Invitrogen, Carlsbad, USA) as directed by the supplier. […] RNA concentration and purity were determined using the NanoDrop 2000/2000-c spectrophotometer (Thermo Fisher Scientific, Walthman, USA). cDNA was synthesized using 2 μg of total RNA as input for the High-Capacity cDNA RT Kit with RNase Inhibitor (Applied BioSystems, Foster City, USA) with a final reaction volume of 20 μL. […]"}, "[3]": {"conditions": "PEA 300 mg/kg oral single dose, PFD7, vs vehicle"}, "[4]": {"conditions": "PEA at dosages lower than 300 mg/kg oral, PFD7, P>0.05 vs vehicle"}, "[5]": {"conditions": "PEA 100 or 300 mg/kg oral once daily for 7 consecutive days, day 14 after CCI"}, "[6]": {"conditions": "single oral PEA administration, dose-response, day 7 after CCI, vs vehicle"}},
  "data": [
    {"compound": "CCCCCCCCCCCCCCCC(=O)NCCO", "note": "[PEA, palmitoylethanolamide]", "values": [
      {"measurement": "alleviation of heat hyperalgesia, contralateral paw", "setting": "[1]; [3]", "result": 110, "unit": "%"},
      {"measurement": "alleviation of heat hyperalgesia, ipsilateral paw", "setting": "[1]; [3]", "result": 93, "unit": "%"},
      {"measurement": "attenuation of mechanical allodynia, contralateral paw", "setting": "[1]; [3]", "result": 112, "unit": "%"},
      {"measurement": "attenuation of mechanical allodynia, ipsilateral paw", "setting": "[1]; [3]", "result": 91, "unit": "%"},
      {"measurement": "formalin-evoked nocifensive response", "setting": "[1]; PEA 10, 30, 100 and 300 mg/kg oral", "result": "dose-dependent suppression"},
      {"measurement": "formalin-evoked inflammatory response (paw thickness)", "setting": "[1]; PEA 10, 30, 100 and 300 mg/kg oral, PFD7", "result": "dose-dependent suppression"},
      {"measurement": "effect on heat hyperalgesia", "setting": "[1]; [4]", "result": "no effect"},
      {"measurement": "effect on mechanical allodynia", "setting": "[1]; [4]", "result": "no effect"},
      {"measurement": "effect on heat hyperalgesia, subchronic", "setting": "[2]; [5]", "result": "reversed"},
      {"measurement": "effect on mechanical allodynia, subchronic", "setting": "[2]; [5]", "result": "reversed"},
      {"measurement": "ED50, suppression of mechanical allodynia", "setting": "[2]; single oral PEA administration, day 7 after CCI, 95% CI 18.7 to 26.0", "result": 22.2, "unit": "mg/kg"},
      {"measurement": "ED50, suppression of heat hyperalgesia", "setting": "[2]; single oral PEA administration, day 7 after CCI, 95% CI 21.8 to 29.1", "result": 25.1, "unit": "mg/kg"},
      {"measurement": "suppression of heat hyperalgesia (maximal)", "setting": "[2]; [6]", "result": "≤ 109", "unit": "%"},
      {"measurement": "suppression of mechanical allodynia (maximal)", "setting": "[2]; [6]", "result": "up to 85%"},
      {"measurement": "IL-10 mRNA levels", "setting": "IL-10 mRNA", "result": "halved"}
    ]}
  ]
}
